Measured values from patent publication US20260224716A1, “PTH ANALOGS FOR THE TREATMENT OF HYPOPARATHYROIDISM” (priority 2020, published 2026).
Where a SMILES comes first, the peptide text is derived from it. [ ]: non-standard residue; d: D form. The star is where a group is joined. NMeH = CN[C@@H](Cc1c[nH]cn1)C(=O)O; Isobutyryl(2-OH) = CC(C)(O)C(=O)*; Deg = CCC(N)(CC)C(=O)O; Aib = CC(C)(N)C(=O)O

Tests used:
[1] = Rate of model dipeptide cleavage from hexapeptide in PBS (HPLC, LC-MS); format: physicochemical; conditions: buffer
Description: The solution was incubated at 37° C.
The flow rate was 1 ml/min.

[2] = tested on: serum calcium; assay: Pharmacology in normal mice: serum calcium (Example 6); format: in vivo, C57Bl6/J mice; conditions: FIG. 5C, 20 or 40 nmol/kg SC, 24 and 48 hours
Description: Each group of mice was bled immediately before the injection and after 24 and 48 hours. Blood was centrifuges and serum was collected and stored at −20 C. Calcium concentrations were determined used commercially available assays following the manufacturer's instructions.

Row | Compound | half-life at 1 mg/ml [1] | effect on serum calcium levels [2]
1 | C[C@@H](O)[C@H](NC(=O)CNC(=O)[C@H](CCCNC(=N)N)NC(=O)[C@H](CO)NC(=O)[C@H](Cc1c[nH]cn1)NC(=O)[C@@H]1CCCN1C(=O)C(C)(C)O)C(=O)N[C@@H](Cc1ccccc1)C(N)=O [compound 21] ({Isobutyryl(2-OH)}-PHSRGTF-NH2) | 61 h | –
2 | C[C@@H](O)[C@H](NC(=O)CNC(=O)[C@H](CCCNC(=N)N)NC(=O)[C@H](CO)NC(=O)[C@H](Cc1c[nH]cn1)N(C)C(=O)[C@@H]1CCCN1C(=O)C(C)(C)N)C(=O)N[C@@H](Cc1ccccc1)C(N)=O [compound 23] (H-[Aib]P[NMeH]SRGTF-NH2) | 30 h | –
3 | SVSEIQLMHNLGKHLNSMERVEWLRKKLQDVHK(γE-COC16H32CO2H)-OH [SEQ ID NO: 74] | – | increase serum calcium levels

More lines, main results first:

Row | half-life at 1 mg/ml [1] | Compound | effect on serum calcium levels [2]
4 | 46 h | CCC(N)(CC)C(=O)N1CCC[C@H]1C(=O)N[C@@H](Cc1c[nH]cn1)C(=O)N[C@@H](CO)C(=O)N[C@@H](CCCNC(=N)N)C(=O)NCC(=O)N[C@H](C(=O)N[C@@H](Cc1ccccc1)C(N)=O)[C@@H](C)O [compound 20] (H-[Deg]PHSRGTF-NH2) | –
5 | 58 h | C[C@H](NC(=O)[C@@H]1CCCN1C(=O)C(C)(C)N)C(=O)N[C@@H](CO)C(=O)N[C@@H](CCCNC(=N)N)C(=O)NCC(=O)N[C@H](C(=O)N[C@@H](Cc1ccccc1)C(N)=O)[C@@H](C)O [compound 22] (H-[Aib]PASRGTF-NH2) | –
